Test systems include SNB-75 CNS; SK-MEL-2 melanoma; OVCAR-8 ovarian; MALME-3M melanoma; SK-OV-3 ovarian; IGROV1 ovarian; KM12 colon; ACHN renal; M14 melanoma.
Experiment in all cases: NCI-60 cell line screen, 48 h

Molecules are shown by their SMILES.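 Method: 48-hour compound exposure of cells in 96-well plates, five concentrations, linear interpolation of endpoints. GI50 = concentration required for 50% inhibition of growth. TGI: total growth inhibition.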

For the compound `COc1cc2c3c(c1OC)C(=O)C=C3N(S(=O)(=O)c1ccc(C)cc1)CC2`, the TGI with SNB-75 CNS, in the test with SK-MEL-2 melanoma, in the test on OVCAR-8 ovarian, in the test on MALME-3M melanoma, in the test with SK-OV-3 ovarian and with IGROV1 ovarian was above 100 µM in each case. The TGI in the test with KM12 colon, with ACHN renal and in the test with M14 melanoma was above 100 µM each time.

Take `O=c1[nH]c(=O)n(C2CC(O)C(CO)O2)cc1COCC(F)(F)F` (stereo not given): the TGI in the test with SNB-75 CNS, in the test with SK-MEL-2 melanoma, in the test with OVCAR-8 ovarian, with MALME-3M melanoma, in the test on SK-OV-3 ovarian and with IGROV1 ovarian was above 100 µM throughout. The TGI in the test on KM12 colon, in the test on ACHN renal and with M14 melanoma was above 100 µM each time.

Take `C/C(O)=C(\N=O)C(=O)NCc1ccccc1`: the TGI in the test with SNB-75 CNS, in the test on SK-MEL-2 melanoma, in the test on OVCAR-8 ovarian, in the test on MALME-3M melanoma, in the test on SK-OV-3 ovarian and in the test on IGROV1 ovarian was above 100 µM each time. Further, the TGI in the test on KM12 colon and in the test with ACHN renal was above 100 µM throughout.

Turning to `COc1cccc2nc3c(C(=O)NCCN(C)C)cccc3nc12`, the TGI with SNB-75 CNS is above 47.9 µM; with SK-MEL-2 melanoma, 22.7 µM; in the test with OVCAR-8 ovarian, above 88 µM; in the test with MALME-3M melanoma, 21.9 µM; in the test on SK-OV-3 ovarian, above 46.4 µM; with IGROV1 ovarian, above 72.9 µM. Also, the TGI in the test on KM12 colon was 36.9 µM; in the test with ACHN renal, above 100 µM; with M14 melanoma, 36.3 µM.

Take `CC1(C)C(=O)C(=Cc2ccco2)C1=O`: the TGI in the test on SNB-75 CNS, in the test on SK-MEL-2 melanoma, in the test on OVCAR-8 ovarian, in the test with MALME-3M melanoma, in the test with SK-OV-3 ovarian and in the test on IGROV1 ovarian was above 100 µM in each case. Further, the TGI in the test on KM12 colon, with ACHN renal and with M14 melanoma was above 100 µM each time.

Consider `COC(=O)CC(=O)NCC1=CCC(=O)CC1`, for which the TGI with SNB-75 CNS, in the test with SK-MEL-2 melanoma, with OVCAR-8 ovarian, in the test with MALME-3M melanoma, with SK-OV-3 ovarian and in the test on IGROV1 ovarian was above 100 µM each time. Also, the TGI in the test with KM12 colon and in the test with M14 melanoma was above 100 µM each time.

Consider `OC12CCC3(O)c4ccccc4C3C1c1ccccc12` (stereo not given), for which the TGI in the test on SNB-75 CNS, with SK-MEL-2 melanoma, in the test with OVCAR-8 ovarian, with MALME-3M melanoma, in the test with SK-OV-3 ovarian and in the test on KM12 colon was above 100 µM each time. Also, the TGI in the test with ACHN renal and with M14 melanoma was above 100 µM in each case.

As for `CC12OC(C(=O)C13CCC3)C1C(=O)c3ccc4c(ccc5ccccc54)c3C(=O)C12` (stereo not given), the GI50 was 18.1 µM in the test with SNB-75 CNS; 19.4 µM in the test with SK-MEL-2 melanoma; 6.49 µM in the test on OVCAR-8 ovarian; 4.2 µM in the test with MALME-3M melanoma; 26.5 µM with SK-OV-3 ovarian; 21.4 µM with IGROV1 ovarian. Further, the GI50 with ACHN renal was 6.78 µM; in the test on M14 melanoma, 14.5 µM. In addition, the TGI was 37.7 µM in the test on SNB-75 CNS; above 100 µM with SK-MEL-2 melanoma; above 100 µM in the test with OVCAR-8 ovarian; 17.2 µM with MALME-3M melanoma; 80.5 µM in the test with SK-OV-3 ovarian; above 100 µM in the test on IGROV1 ovarian. For the same compound, the TGI with ACHN renal amounted to 21.4 µM; in the test with M14 melanoma it was 45.4 µM.

Take `N#C/C(=C\c1ccccc1)C(NO)Nc1ccccc1` (stereo not given): the TGI with SNB-75 CNS, with SK-MEL-2 melanoma, with OVCAR-8 ovarian, with MALME-3M melanoma, in the test with SK-OV-3 ovarian and with IGROV1 ovarian was above 100 µM each time. Besides, the TGI with KM12 colon, in the test with ACHN renal and in the test with M14 melanoma was above 100 µM each time.

As to `C=Cc1c(C)c2cc3[nH]c(cc4nc(cc5nc(cc1[nH]2)C(C)=C5CCC(=O)N(CC)CC)C(CCC(=O)N(CC)CC)=C4C)c(C)c3C=C`, the TGI with SNB-75 CNS is 88.3 µM; in the test with SK-MEL-2 melanoma it was above 100 µM; with OVCAR-8 ovarian, above 100 µM; with MALME-3M melanoma it was above 100 µM; with SK-OV-3 ovarian, above 100 µM; in the test with IGROV1 ovarian it was above 100 µM. Moreover, the TGI with KM12 colon, in the test with ACHN renal and with M14 melanoma was above 100 µM throughout.

On to `CC(=O)NC1=C(N)C(=O)c2ccccc2C1=O`, for which the TGI is above 100 µM in the test with SNB-75 CNS; above 100 µM in the test on SK-MEL-2 melanoma; above 100 µM in the test with OVCAR-8 ovarian; 50.4 µM in the test on MALME-3M melanoma; above 100 µM in the test on SK-OV-3 ovarian; above 100 µM in the test on IGROV1 ovarian. For the same compound, the TGI in the test with KM12 colon, with ACHN renal and with M14 melanoma was above 100 µM throughout.

In the case of `O=C(/C(=N/Nc1ccccc1)c1ccc([N+](=O)[O-])cc1)c1ccc([N+](=O)[O-])cc1`, the TGI with SNB-75 CNS, with SK-MEL-2 melanoma, with OVCAR-8 ovarian, in the test with MALME-3M melanoma, in the test with SK-OV-3 ovarian and in the test on IGROV1 ovarian was above 100 µM each time. Also, the TGI in the test on KM12 colon, in the test on ACHN renal and with M14 melanoma was above 100 µM each time.

As to `COC(=O)CCC(=O)N1CC1C` (stereo not given), the TGI in the test with SNB-75 CNS, in the test on SK-MEL-2 melanoma, in the test with OVCAR-8 ovarian, with MALME-3M melanoma, with SK-OV-3 ovarian and in the test on IGROV1 ovarian was above 100 µM each time. The TGI in the test on KM12 colon, in the test on ACHN renal and in the test on M14 melanoma was above 100 µM in each case.

As to `CC(C)C(=S)N(C)O`, the TGI in the test on SNB-75 CNS was above 100 µM; in the test with SK-MEL-2 melanoma, 72.3 µM; in the test with OVCAR-8 ovarian, above 100 µM; in the test with MALME-3M melanoma, above 100 µM; with SK-OV-3 ovarian it was above 100 µM; in the test with IGROV1 ovarian, above 100 µM. Besides, the TGI was above 72.9 µM in the test with KM12 colon, above 100 µM with ACHN renal and above 100 µM with M14 melanoma.

These data come from PubChem BioAssay (NCI).
